Among the data in patent US20210122730A1, “GLUCOCORTICOID RECEPTOR MODULATORS” (ORIC Pharmaceuticals, Inc., priority 2017, published 2021) are inhibition and IC50 values, retold here.

The target in one series is T1, CYP2C8 (Homo sapiens, UniProt P10632).
T1 construct: Pooled human microsomes were obtained from Sekisui XenoTech, KS; tissue Sekisui XenoTech, KS; host or cells: pooled human liver microsomes
T1 sequence (P10632 1-490): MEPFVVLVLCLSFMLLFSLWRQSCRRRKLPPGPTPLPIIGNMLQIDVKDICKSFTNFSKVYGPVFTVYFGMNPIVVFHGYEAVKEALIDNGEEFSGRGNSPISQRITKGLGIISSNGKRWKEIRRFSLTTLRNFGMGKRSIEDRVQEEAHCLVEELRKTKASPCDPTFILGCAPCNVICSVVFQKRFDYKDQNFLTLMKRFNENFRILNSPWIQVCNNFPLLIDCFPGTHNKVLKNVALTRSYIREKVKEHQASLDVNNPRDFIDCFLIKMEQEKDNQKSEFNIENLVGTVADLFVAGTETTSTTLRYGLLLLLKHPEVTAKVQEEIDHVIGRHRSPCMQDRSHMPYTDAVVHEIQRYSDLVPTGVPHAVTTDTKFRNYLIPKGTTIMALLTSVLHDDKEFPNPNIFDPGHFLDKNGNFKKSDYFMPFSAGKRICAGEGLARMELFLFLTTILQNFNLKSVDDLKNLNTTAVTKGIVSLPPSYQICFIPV
The series can be described thus: CYP Inhibition Assay (CYP2C8, human liver microsomes, paclitaxel substrate). The following applies: pH 7.4; pooled human liver microsomes 0.1 mg/mL, probe substrate paclitaxel. Type of series: in vitro ADME. An outline of the steps:
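CYP2C8 activity read as 6α-hydroxypaclitaxel formation by LC-MS/MS, with % inhibition versus vehicle control. Reactions ran 5 min at 37° C, pH 7.4 phosphate buffer, 0.1 mg/mL pooled human liver microsomes, 1 mM NADPH, duplicate wells.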

A further series has as its target T2, GR (Homo sapiens, UniProt P04150).
T2 construct: expressed in transfected cells; host or cells: CHO-K1
T2 sequence (P04150 1-777): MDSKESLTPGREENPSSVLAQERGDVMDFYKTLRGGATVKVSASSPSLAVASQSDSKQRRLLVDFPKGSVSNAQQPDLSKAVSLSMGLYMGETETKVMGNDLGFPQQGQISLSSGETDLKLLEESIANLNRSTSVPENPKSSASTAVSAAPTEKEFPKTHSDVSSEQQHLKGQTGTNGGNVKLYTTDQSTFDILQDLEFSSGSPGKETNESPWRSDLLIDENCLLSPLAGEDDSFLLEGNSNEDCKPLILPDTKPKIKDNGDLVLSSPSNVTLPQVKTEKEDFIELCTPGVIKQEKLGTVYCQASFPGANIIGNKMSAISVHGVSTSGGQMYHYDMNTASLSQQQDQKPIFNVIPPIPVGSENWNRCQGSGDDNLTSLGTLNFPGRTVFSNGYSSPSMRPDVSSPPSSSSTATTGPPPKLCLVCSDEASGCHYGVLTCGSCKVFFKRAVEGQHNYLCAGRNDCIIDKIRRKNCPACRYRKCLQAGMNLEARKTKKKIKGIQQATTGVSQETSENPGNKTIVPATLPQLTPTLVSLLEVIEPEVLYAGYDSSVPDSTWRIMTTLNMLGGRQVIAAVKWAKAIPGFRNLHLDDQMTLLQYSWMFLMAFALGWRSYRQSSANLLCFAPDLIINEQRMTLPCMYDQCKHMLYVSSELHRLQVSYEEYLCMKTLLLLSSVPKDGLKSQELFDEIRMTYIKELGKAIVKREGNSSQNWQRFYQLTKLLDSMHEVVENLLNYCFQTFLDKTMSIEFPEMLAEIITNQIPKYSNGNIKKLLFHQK
The experiment in a line: In Vitro GR Luciferase Reporter Assay (antagonist mode, CHO-K1-GR-MMTV-Luc reporter cells). Type of series: cell-based. The conditions noted are these: antagonist mode, 10 nM Dexamethasone. An outline of the steps:
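Antagonist mode: compounds (8 serial 1:5 dilutions) added to GR-MMTV-luciferase CHO-K1 reporter cells co-exposed to 10 nM dexamethasone final, in phenol red-free DMEM plus 10% CSS. After roughly 18-24 h at 37° C, OneGlo luminescence read and IC50 calculated.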

The compound `CC(C)N([C@H]1CCC2=Cc3c(cnn3-c3ccc(F)cc3)C[C@]2(C(=O)c2cc(C(F)(F)F)ccn2)C1)S(=O)(=O)c1cnn(C)c1` [Example 193, N-((4aS,6S)-1-(4-fluorophenyl)-4a-(4-(trifluoromethyl)picolinoyl)-4,4a,5,6,7,8-hexahydro-1H-benzo[f]indazol-6-yl)-N-isopropyl-1-methyl-1H-pyrazole-4-sulfonamide] gave an inhibition at 5 min against CYP2C8 of 50 to 75%. Besides, the IC50 against GR was not above 100 nM.

Consider `Cn1ncc(S(=O)(=O)N(CC2CC2)[C@H]2CCC3=Cc4c(cnn4-c4ccc(F)cc4)C[C@]3(C(=O)c3ncc(C(F)(F)F)s3)C2)n1` [Example 194, N-(cyclopropylmethyl)-N-((4aS,6S)-1-(4-fluorophenyl)-4a-(5-(trifluoromethyl)thiazole-2-carbonyl)-4,4a,5,6,7,8-hexahydro-1H-benzo[f]indazol-6-yl)-2-methyl-2H-1,2,3-triazole-4-sulfonamide], for which the inhibition at 5 min on CYP2C8 was 50 to 75%. This compound also came in with an IC50 against GR not above 100 nM.

Compound `Cn1ccc(S(=O)(=O)N(CC(C)(C)O)[C@H]2CCC3=Cc4c(cnn4-c4ccc(F)cc4)C[C@]3(C(=O)c3cc(C(F)(F)F)ccn3)C2)n1` [Example 195, N-((4aS,6S)-1-(4-fluorophenyl)-4a-(4-(trifluoromethyl)picolinoyl)-4,4a,5,6,7,8-hexahydro-1H-benzo[f]indazol-6-yl)-N-(2-hydroxy-2-methylpropyl)-1-methyl-1H-pyrazole-3-sulfonamide] yielded an inhibition at 5 min on CYP2C8 of 25 to 50%. For the same compound, the IC50 at GR is not above 100 nM.

For `Cn1ccc(S(=O)(=O)N(C2COC2)[C@H]2CCC3=Cc4c(cnn4-c4ccc(F)cc4)C[C@]3(C(=O)c3ncc(C(F)(F)F)s3)C2)n1` [Example 196, N-((4aS,6S)-1-(4-fluorophenyl)-4a-(5-(trifluoromethyl)thiazole-2-carbonyl)-4,4a,5,6,7,8-hexahydro-1H-benzo[f]indazol-6-yl)-1-methyl-N-(oxetan-3-yl)-1H-pyrazole-3-sulfonamide], the inhibition at 5 min against CYP2C8 was in the range of 50 to 75%. Moreover, the IC50 against GR was not above 100 nM.

In turn, `Cn1ccc(S(=O)(=O)N(C2COC2)[C@H]2CCC3=Cc4c(cnn4-c4ccc(F)cc4)C[C@]3(C(=O)c3cc(C(F)(F)F)ccn3)C2)n1` [Example 198, N-((4aS,6S)-1-(4-fluorophenyl)-4a-(4-(trifluoromethyl)picolinoyl)-4,4a,5,6,7,8-hexahydro-1H-benzo[f]indazol-6-yl)-1-methyl-N-(oxetan-3-yl)-1H-pyrazole-3-sulfonamide] gave an inhibition at 5 min against CYP2C8 of 25 to 50%. In addition, the IC50 against GR is not above 100 nM.

In turn, `CCN([C@H]1CCC2=Cc3c(cnn3-c3ccc(F)cc3)C[C@]2(C(=O)c2ncc(C(F)(F)F)s2)C1)S(=O)(=O)c1ccn(C)n1` [Example 199, N-ethyl-N-((4aS,6S)-1-(4-fluorophenyl)-4a-(5-(trifluoromethyl)thiazole-2-carbonyl)-4,4a,5,6,7,8-hexahydro-1H-benzo[f]indazol-6-yl)-1-methyl-1H-pyrazole-3-sulfonamide] yielded an inhibition at 5 min against CYP2C8 of 75 to 90%. At GR, this compound gave a concentration for half-maximal inhibition (IC50) not above 100 nM.

`Cn1cnc(S(=O)(=O)N(C2CC2)[C@H]2CCC3=Cc4c(cnn4-c4ccc(F)cc4)C[C@]3(C(=O)c3ncc(C(F)(F)F)s3)C2)c1` [Example 201, N-cyclopropyl-N-((4aS,6S)-1-(4-fluorophenyl)-4a-(5 (trifluoromethyl)thiazole-2-carbonyl)-4,4a,5,6,7,8-hexahydro-1H-benzo[f]indazol-6-yl)-1-methyl-1H-imidazole-4-sulfonamide] gave an inhibition at 5 min on CYP2C8 not above 25%. In addition, the half-maximal inhibitory concentration (IC50) on GR is not above 100 nM.

On CYP2C8, `Cn1cc(S(=O)(=O)[C@@]2(F)CCC3=Cc4c(cnn4-c4ccc(F)cc4)C[C@]3(C(=O)c3cc(C(F)(F)F)ccn3)C2)cn1` [Example 202, ((4aS,6S)-6-fluoro-1-(4-fluorophenyl)-6-((1-methyl-1H-pyrazol-4-yl)sulfonyl)-1,4,5,6,7,8-hexahydro-4aH-benzo[f]indazol-4a-yl)(4-(trifluoromethyl)pyridin-2-yl)methanone] displayed an inhibition at 5 min of 25 to 50%. The compound further registered an IC50 against GR not above 100 nM.

On to `Cn1ccc(S(=O)(=O)N(C2CCC2)[C@H]2CCC3=Cc4c(cnn4-c4ccc(F)cc4)C[C@]3(C(=O)c3ncc(C(F)(F)F)s3)C2)n1` [Example 203, N-cyclobutyl-N-((4aS,6S)-1-(4-fluorophenyl)-4a-(5 (trifluoromethyl)thiazole-2-carbonyl)-4,4a,5,6,7,8-hexahydro-1H-benzo[f]indazol-6-yl)-1-methyl-1H-pyrazole-3-sulfonamide], for which, at CYP2C8, the inhibition at 5 min was 25 to 50%. The half-inhibitory concentration (IC50) on GR is not above 100 nM.

In turn, `O=C(c1cc(C(F)(F)F)ccn1)[C@]12Cc3cnn(-c4ccc(F)cc4)c3C=C1CC[C@H](N(C1COC1)S(=O)(=O)c1ccc(F)cc1)C2` [Example 204, 4-fluoro-N-((4aS,6S)-1-(4-fluorophenyl)-4a-(4-(trifluoromethyl)picolinoyl)-4,4a,5,6,7,8-hexahydro-1H-benzo[f]indazol-6-yl)-N-(oxetan-3-yl)benzenesulfonamide] returned an inhibition at 5 min at CYP2C8 of 25 to 50%. This compound came in with a concentration for half-maximal inhibition (IC50) against GR not above 100 nM.

`Cn1ccc(S(=O)(=O)N(C2CCC2)[C@H]2CCC3=Cc4c(cnn4-c4ccc(F)cc4)C[C@]3(C(=O)c3cc(C(F)(F)F)ccn3)C2)n1` [Example 206, N-cyclobutyl-N-((4aS,6S)-1-(4-fluorophenyl)-4a-(4-(trifluoromethyl)picolinoyl)-4,4a,5,6,7,8-hexahydro-1H-benzo[f]indazol-6-yl)-1-methyl-1H-pyrazole-3-sulfonamide] came in with an inhibition at 5 min against CYP2C8 of 25 to 50%. Moreover, at GR, the IC50 was not above 100 nM.

As for `CC(C)N([C@H]1CCC2=Cc3c(cnn3-c3ccc(F)cc3)C[C@]2(C(=O)c2cc(C(F)(F)F)ccn2)C1)S(=O)(=O)c1ccc(F)cc1` [Example 210, 4-fluoro-N-((4aS,6S)-1-(4-fluorophenyl)-4a-(4-(trifluoromethyl)picolinoyl)-4,4a,5,6,7,8-hexahydro-1H-benzo[f]indazol-6-yl)-N-isopropylbenzenesulfonamide], the inhibition at 5 min at CYP2C8 was 75 to 90%. This compound also registered an IC50 against GR not above 100 nM.

In turn, `CC(C)CN([C@H]1CCC2=Cc3c(cnn3-c3ccc(F)cc3)C[C@]2(C(=O)c2ncc(C(F)(F)F)s2)C1)S(=O)(=O)c1ccn(C)n1` [Example 212, N-((4aS,6S)-1-(4-fluorophenyl)-4a-(5-(trifluoromethyl)thiazole-2-carbonyl)-4,4a,5,6,7,8-hexahydro-1H-benzo[f]indazol-6-yl)-N-isobutyl-1-methyl-1H-pyrazole-3-sulfonamide] came in with an inhibition at 5 min at CYP2C8 of 25 to 50%. This compound also gave an IC50 against GR not above 100 nM.

On to `CCN([C@H]1CCC2=Cc3c(cnn3-c3ccc(F)cc3)C[C@]2(C(=O)c2cc(C(F)(F)F)ccn2)C1)S(=O)(=O)c1cn(C)cn1` [Example 214, N-ethyl-N-((4aS,6S)-1-(4-fluorophenyl)-4a-(4-(trifluoromethyl)picolinoyl)-4,4a,5,6,7,8-hexahydro-1H-benzo[f]indazol-6-yl)-1-methyl-1H-imidazole-4-sulfonamide], for which the inhibition at 5 min at CYP2C8 was not above 25%. The compound also returned an IC50 at GR not above 100 nM.

Take `CC(C)CN([C@H]1CCC2=Cc3c(cnn3-c3ccc(F)cc3)C[C@]2(C(=O)c2cc(C(F)(F)F)ccn2)C1)S(=O)(=O)c1ccn(C)n1` [Example 215, N-((4aS,6S)-1-(4-fluorophenyl)-4a-(4-(trifluoromethyl)picolinoyl)-4,4a,5,6,7,8-hexahydro-1H-benzo[f]indazol-6-yl)-N-isobutyl-1-methyl-1H-pyrazole-3-sulfonamide]: the inhibition at 5 min against CYP2C8 was 50 to 75%. Further, the IC50 at GR was not above 100 nM.
